Reference: publication PMC6287599, “2,6-Bis(2-Benzimidazolyl)Pyridine (BBP) Is a Potent and Selective Inhibitor of Small Conductance Calcium-Activated Potassium (SK) Channels” (Frontiers in Pharmacology, 2018)
Entries after “also recorded” stand apart in the source; their conditions may differ.

Legend:
Type in all cases: cell-based
hERG channel = hERG channel (Homo sapiens, UniProt Q12809); assay: Automated patch clamp, stable CHO cell line expressing hERG; conditions: BBP 10 μM, automated patch clamp, CHO, n = 5
hERG channel, sequence (Q12809 whole entry): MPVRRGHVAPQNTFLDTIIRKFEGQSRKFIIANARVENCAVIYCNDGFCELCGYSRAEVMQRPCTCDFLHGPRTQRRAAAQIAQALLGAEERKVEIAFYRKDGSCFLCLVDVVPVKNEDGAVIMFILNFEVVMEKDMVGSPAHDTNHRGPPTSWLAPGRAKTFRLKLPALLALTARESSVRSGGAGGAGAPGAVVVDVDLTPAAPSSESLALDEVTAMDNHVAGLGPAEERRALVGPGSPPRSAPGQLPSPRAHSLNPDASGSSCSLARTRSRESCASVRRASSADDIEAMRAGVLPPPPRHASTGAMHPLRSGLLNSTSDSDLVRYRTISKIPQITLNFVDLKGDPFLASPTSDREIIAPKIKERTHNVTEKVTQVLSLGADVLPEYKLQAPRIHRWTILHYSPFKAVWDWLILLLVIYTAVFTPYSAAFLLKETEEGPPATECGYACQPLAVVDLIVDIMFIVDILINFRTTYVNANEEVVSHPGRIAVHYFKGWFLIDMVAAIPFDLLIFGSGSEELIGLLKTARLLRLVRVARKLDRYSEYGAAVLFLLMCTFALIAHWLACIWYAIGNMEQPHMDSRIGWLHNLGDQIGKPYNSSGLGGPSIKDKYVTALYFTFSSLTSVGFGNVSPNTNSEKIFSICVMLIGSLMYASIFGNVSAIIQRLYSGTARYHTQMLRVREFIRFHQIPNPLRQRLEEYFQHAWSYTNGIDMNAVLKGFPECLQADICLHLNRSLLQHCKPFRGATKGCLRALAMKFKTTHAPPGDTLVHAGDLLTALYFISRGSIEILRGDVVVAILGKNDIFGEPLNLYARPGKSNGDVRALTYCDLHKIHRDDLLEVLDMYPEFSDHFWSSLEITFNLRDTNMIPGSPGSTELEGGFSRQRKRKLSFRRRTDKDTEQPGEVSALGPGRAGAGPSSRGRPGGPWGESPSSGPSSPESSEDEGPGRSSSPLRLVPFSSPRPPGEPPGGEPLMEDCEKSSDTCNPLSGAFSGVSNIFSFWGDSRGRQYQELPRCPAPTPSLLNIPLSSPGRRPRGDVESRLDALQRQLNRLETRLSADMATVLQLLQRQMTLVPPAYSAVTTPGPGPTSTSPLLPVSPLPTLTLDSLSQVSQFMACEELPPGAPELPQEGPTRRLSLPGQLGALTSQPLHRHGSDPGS
Protocol: (§1) Three different stable HEK293 cell lines expressing hSK1, hSK2 or hSK3 (NeuroSearch A/S, Ballerup, Denmark) and a CHO stable cell line expressing hERG (University of Copenhagen, Copenhagen, Denmark) were used for automated patch clamp. These cells were cultivated and prepared as previously described (Skarsfeldt et al., [2016]).
(§2) Automated patch clamp (QPatch 16, Sophion, Denmark) on SK-expressing HEK293 cell lines was conducted as previously described (Simó-Vicens et al., [2017b]). Briefly, SK currents were elicited by voltage-ramps starting at −80 mV and finishing at +80 mV from a holding potential of 0 mV. Extracellular solution contained 0.1 mM CaCl2, 3 mM MgCl2, 154 mM KCl, 10 mM HEPES and 10 mM glucose with pH 7.4. Intracellular solution for SK experiments contained 8.106 mM CaCl2 (final free calcium concentration of 400 nM), 1.167 mM MgCl2, 10 mM EGTA, 154 mM KCl, 10 mM HEPES, 31.25/ 10 mM KOH/EGTA and 15 mM KOH with pH 7.2. […]
(§3) To assess the effect of BBP on other calcium-activated potassium channels (hBK, hSK3 WT, rSK3 H491N, and hIK), each individual current was first normalized to its cell size using membrane's capacitance (pA/pF) before statistical analysis. […] Statistical significance between saline and the effect of both BBP and the corresponding reference compound was determined for each channel using one-way ANOVA analysis. […]

[1] = molecular target: hERG channel (against SK channel subtypes hSK1, hSK2, hSK3) (Homo sapiens, UniProt Q12809); assay: as above; conditions: human, CHO cells stably expressing hERG
hERG channel (against SK channel subtypes hSK1, hSK2, hSK3), sequence (Q12809 whole entry): as above
Protocol: as §1, §2, §3

hSK3 WT = molecular target: T1, hSK3 WT (Homo sapiens, UniProt Q9UGI6); assay: Manual whole cell patch clamp, HEK293 transiently transfected with hSK3 WT; conditions: BBP 1 μM, compared to positive control bicuculline methiodide 100 μM, n = 5, read-out: Inhibition of hSK3 current
T1 construct: expressed in transfected cells; host or cells: HEK293 (transient, co-transfected with eGFP)
Protocol: HEK293 cells were transiently co-transfected with the plasmid of interest (hBK, hSK1, hSK2, hSK3 WT, rSK3 H491N, or hIK) and eGFP using standard Lipofectamine™ 2000 (Thermo Fisher Scientific, Waltham, Massachussets, USA) transfection protocols. After transfection, cells were incubated overnight before the experiments.
Manual patch clamp experiments were performed at room temperature in the whole cell configuration with a HEKA EPC9 amplifier and the Patchmaster software (HEKA Elektronik, Ludwigshafen, Germany). All currents were elicited every 2 s using an incremental 200 ms voltage-ramp protocol starting at −80 mV and finishing at +80 mV from a holding potential of 0 mV. […] Currents were measured using the same solutions as the ones used for automated patch clamp, with symmetrical potassium concentrations and a free intracellular calcium concentration of 400 nM. […]
as §3

hIK = molecular target: T2, hIK (Homo sapiens, UniProt O15554); assay: Manual whole cell patch clamp, HEK293 transiently transfected with hIK; conditions: BBP 1 μM, n = 6
T2 construct: expressed in transfected cells; host or cells: HEK293 (transient, co-transfected with eGFP)

hSK1 = hSK1 (Homo sapiens, UniProt Q92952); assay: Automated patch clamp (QPatch 16), whole cell, stable HEK293 cell line expressing hSK1; conditions: HEK stable line, 400 nM free intracellular calcium, mean ± SEM, n = 9
Protocol: as §1
Automated patch clamp (QPatch 16, Sophion, Denmark) on SK-expressing HEK293 cell lines was conducted as previously described (Simó-Vicens et al., [2017b]). Briefly, SK currents were elicited by voltage-ramps starting at −80 mV and finishing at +80 mV from a holding potential of 0 mV. Extracellular solution contained 0.1 mM CaCl2, 3 mM MgCl2, 154 mM KCl, 10 mM HEPES and 10 mM glucose with pH 7.4. Intracellular solution for SK experiments contained 8.106 mM CaCl2 (final free calcium concentration of 400 nM), 1.167 mM MgCl2, 10 mM EGTA, 154 mM KCl, 10 mM HEPES, 31.25/ 10 mM KOH/EGTA and 15 mM KOH with pH 7.2. Automated patch clamp on hERG-expressing CHO cell line was performed also as previously described (Skarsfeldt et al., [2016]).
Individual IC50 values were calculated for each cell with the built-in nonlinear fit log(inhibitor) vs. normalized response equation:
Where Y is the normalized response, from 100, corresponding to current recorded during saline perfusion, down to 0, corresponding to currents recorded in the presence of bicuculline methiodide 100 μM. […]

- inhibition at 1 µM (hSK3 WT): 92.5 ± 2.3%
- IC50 (hSK1): 0.7 ± 0.2 µM
SMILES: c1cc(-c2nc3ccccc3[nH]2)nc(-c2nc3ccccc3[nH]2)c1 [BBP, 2,6-Bis(2-benzimidazolyl)pyridine]
- Reduction of hERG current (hERG channel): 19 ± 3%
- selectivity ratio [1]: 46
- Effect on hIK current (hIK): did not have any effect; also recorded: remained unaffected; also recorded: not affected
